Converted amounts (≈) assume the structure as drawn.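 Step 1: Grow cells in 96-well plates. Step 2: Expose to compound for 48 hours at 5 concentrations. Step 3: Interpolate endpoints linearly; if unreached, use highest concentration. At the GI50, growth is halved. TGI: total growth inhibition.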
What was measured:
Assay in all cases: DTP human tumour cell line panel, 48 h
HCT-15 colon = system: HCT-15 colon
CAKI-1 renal = system: CAKI-1 renal
U251 CNS = system: U251 CNS
NCI-H23 lung = system: NCI-H23 lung
MCF7 breast = system: MCF7 breast
SNB-19 CNS = system: SNB-19 CNS
PC-3 prostate = system: PC-3 prostate
HT29 colon = system: HT29 colon
SK-OV-3 ovarian = system: SK-OV-3 ovarian
RXF 393 renal = system: RXF 393 renal
SN12C renal = system: SN12C renal
MDA-MB-231 breast = system: MDA-MB-231 breast
HS 578T breast = system: HS 578T breast
COLO 205 colon = system: COLO 205 colon
NCI-H460 lung = system: NCI-H460 lung
SF-539 CNS = system: SF-539 CNS
MOLT-4 leukemia = system: MOLT-4 leukemia
LOX IMVI melanoma = system: LOX IMVI melanoma
OVCAR-4 ovarian = system: OVCAR-4 ovarian
HCT-116 colon = system: HCT-116 colon
NCI-H522 lung = system: NCI-H522 lung
KM12 colon = system: KM12 colon
HCC-2998 colon = system: HCC-2998 colon
EKVX NSCLC = system: EKVX NSCLC
MDA-MB-435 = system: MDA-MB-435
OVCAR-8 ovarian = system: OVCAR-8 ovarian
SNB-75 CNS = system: SNB-75 CNS
BT-549 breast = system: BT-549 breast
HOP-62 NSCLC = system: HOP-62 NSCLC
TK-10 renal = system: TK-10 renal

CC1(C)CC(=O)C2=C(C1)NC(SSC1=C(C#N)C(c3ccccc3)C3=C(CC(C)(C)CC3=O)N1)=C(C#N)C2c1ccccc1 (centres undefined)
TGI (HCT-15 colon): 48.8 µg/mL (≈ 78.8 µM) | GI50 (CAKI-1 renal): 28.3 µg/mL (≈ 45.8 µM) | TGI (CAKI-1 renal): 49.4 µg/mL (≈ 79.8 µM) | GI50 (U251 CNS): 33.2 µg/mL (≈ 53.7 µM) | TGI (U251 CNS): 64.2 µg/mL (≈ 104 µM) | GI50 (NCI-H23 lung): 27.7 µg/mL (≈ 44.7 µM) | TGI (NCI-H23 lung): 50.9 µg/mL (≈ 82.2 µM) | GI50 (MCF7 breast): 35.6 µg/mL (≈ 57.6 µM) | TGI (MCF7 breast): 85.6 µg/mL (≈ 138 µM) | GI50 (SNB-19 CNS): 89.2 µg/mL (≈ 144 µM) | TGI (SNB-19 CNS): > 150 µg/mL | GI50 (PC-3 prostate): 26.1 µg/mL (≈ 42.1 µM) | TGI (PC-3 prostate): 47.5 µg/mL (≈ 76.7 µM) | GI50 (HT29 colon): 26.8 µg/mL (≈ 43.4 µM) | TGI (HT29 colon): 48.2 µg/mL (≈ 78 µM) | GI50 (SK-OV-3 ovarian): 22.9 µg/mL (≈ 37 µM) | TGI (SK-OV-3 ovarian): 59 µg/mL (≈ 95.3 µM) | GI50 (RXF 393 renal): 25.7 µg/mL (≈ 41.6 µM) | TGI (RXF 393 renal): 47 µg/mL (≈ 76 µM) | GI50 (SN12C renal): 23.5 µg/mL (≈ 38 µM) | TGI (SN12C renal): 43.7 µg/mL (≈ 70.6 µM) | GI50 (MDA-MB-231 breast): 23.4 µg/mL (≈ 37.8 µM) | TGI (MDA-MB-231 breast): 45.1 µg/mL (≈ 73 µM) | GI50 (HS 578T breast): 30.5 µg/mL (≈ 49.2 µM) | TGI (HS 578T breast): 68.1 µg/mL (≈ 110 µM) | GI50 (COLO 205 colon): 29.5 µg/mL (≈ 47.7 µM) | TGI (COLO 205 colon): 51.5 µg/mL (≈ 83.2 µM) | GI50 (NCI-H460 lung): 27.7 µg/mL (≈ 44.8 µM) | TGI (NCI-H460 lung): 50.7 µg/mL (≈ 81.9 µM) | GI50 (SF-539 CNS): 26.9 µg/mL (≈ 43.5 µM) | TGI (SF-539 CNS): 51 µg/mL (≈ 82.5 µM) | GI50 (MOLT-4 leukemia): 37.7 µg/mL (≈ 60.9 µM) | TGI (MOLT-4 leukemia): 104 µg/mL (≈ 168 µM) | GI50 (LOX IMVI melanoma): 27.2 µg/mL (≈ 44 µM) | TGI (LOX IMVI melanoma): 49.3 µg/mL (≈ 79.7 µM) | GI50 (OVCAR-4 ovarian): 23.6 µg/mL (≈ 38.2 µM) | TGI (OVCAR-4 ovarian): 44.8 µg/mL (≈ 72.4 µM) | GI50 (HCT-116 colon): 26.3 µg/mL (≈ 42.5 µM) | TGI (HCT-116 colon): 47 µg/mL (≈ 75.9 µM) | GI50 (NCI-H522 lung): 26.1 µg/mL (≈ 42.1 µM) | TGI (NCI-H522 lung): 47.7 µg/mL (≈ 77.1 µM) | GI50 (KM12 colon): 26.2 µg/mL (≈ 42.4 µM) | TGI (KM12 colon): 49.7 µg/mL (≈ 80.3 µM) | GI50 (HCC-2998 colon): 27.8 µg/mL (≈ 45 µM) | TGI (HCC-2998 colon): 52.6 µg/mL (≈ 85 µM) | GI50 (EKVX NSCLC): 28.6 µg/mL (≈ 46.2 µM) | TGI (EKVX NSCLC): 56.2 µg/mL (≈ 90.7 µM) | GI50 (MDA-MB-435): 25.7 µg/mL (≈ 41.5 µM) | TGI (MDA-MB-435): 49.9 µg/mL (≈ 80.6 µM) | GI50 (OVCAR-8 ovarian): 31.6 µg/mL (≈ 51.1 µM) | TGI (OVCAR-8 ovarian): 57.4 µg/mL (≈ 92.8 µM) | GI50 (SNB-75 CNS): 29 µg/mL (≈ 46.8 µM) | TGI (SNB-75 CNS): 53.3 µg/mL (≈ 86.1 µM) | GI50 (BT-549 breast): 27.6 µg/mL (≈ 44.6 µM) | TGI (BT-549 breast): 48.6 µg/mL (≈ 78.6 µM) | GI50 (HOP-62 NSCLC): 72.3 µg/mL (≈ 117 µM) | TGI (HOP-62 NSCLC): > 150 µg/mL | GI50 (TK-10 renal): 26.9 µg/mL (≈ 43.4 µM) | TGI (TK-10 renal): 48.1 µg/mL (≈ 77.8 µM)
